Laboratory results from patent publication US20250019701A1, “TREATMENT FOR INFLAMMATORY DISEASE” (priority 2021, published 2025).

Tests used:
[1] = tested on: THP-1 cells; type: cell-based, human
[2] = tested on: A549 cells; type: cell-based, human
[3] = tested on: THP-1 cells; type: cell-based, human; settings: 48 hours ligand treatment
[4] = tested on: A549 cells
[5] = tested on: ASC; type: cell-based, human; settings: THP-1; after ORF8 transfection; 30 uM Etifoxine or 200 nM PK11195 for 24 hours
[6] = tested on: Vero cells; settings: etifoxine 30 μM, counting adherent cells
[7] = target: T1, NLRP3 (NLR family pyrin domain containing 3) (human, UniProt Q96P20 1-1036); test: co-immunoprecipitation from THP-1 cells, TSPO as bait, western blot
T1 construct: Endogenous protein in the THP-1 cell lysate; also called NRLP3
T1 sequence (Q96P20 whole entry, the tested form may be a part): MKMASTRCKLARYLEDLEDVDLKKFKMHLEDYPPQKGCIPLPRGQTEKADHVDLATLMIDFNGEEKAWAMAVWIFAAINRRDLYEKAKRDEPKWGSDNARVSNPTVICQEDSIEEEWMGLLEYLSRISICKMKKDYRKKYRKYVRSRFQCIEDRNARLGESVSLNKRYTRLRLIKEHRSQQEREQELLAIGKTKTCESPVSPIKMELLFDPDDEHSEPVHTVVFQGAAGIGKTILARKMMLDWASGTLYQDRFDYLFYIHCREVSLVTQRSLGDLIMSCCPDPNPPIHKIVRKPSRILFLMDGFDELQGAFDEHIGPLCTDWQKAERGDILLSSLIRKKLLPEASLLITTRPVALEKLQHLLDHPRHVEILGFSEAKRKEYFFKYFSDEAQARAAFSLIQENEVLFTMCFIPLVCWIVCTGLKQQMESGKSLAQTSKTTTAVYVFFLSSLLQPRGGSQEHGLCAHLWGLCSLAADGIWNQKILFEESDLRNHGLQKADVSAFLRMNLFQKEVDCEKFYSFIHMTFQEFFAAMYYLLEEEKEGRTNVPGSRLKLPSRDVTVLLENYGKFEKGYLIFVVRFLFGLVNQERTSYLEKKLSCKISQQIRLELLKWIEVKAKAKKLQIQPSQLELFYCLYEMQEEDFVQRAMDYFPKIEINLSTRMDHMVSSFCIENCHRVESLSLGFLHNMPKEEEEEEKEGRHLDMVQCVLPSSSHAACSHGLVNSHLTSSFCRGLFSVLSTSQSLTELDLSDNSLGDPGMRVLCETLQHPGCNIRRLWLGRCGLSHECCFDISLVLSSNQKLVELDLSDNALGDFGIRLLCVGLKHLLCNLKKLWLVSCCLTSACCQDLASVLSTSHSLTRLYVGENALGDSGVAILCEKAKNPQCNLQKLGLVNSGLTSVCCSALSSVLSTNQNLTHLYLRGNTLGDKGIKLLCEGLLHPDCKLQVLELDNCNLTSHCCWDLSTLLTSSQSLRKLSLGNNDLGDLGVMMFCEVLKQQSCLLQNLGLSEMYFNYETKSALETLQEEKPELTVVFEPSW

| Molecule | cell death by LDH release (qualitative) [1] | cell death by LDH release (qualitative) [2] | PI cell death (qualitative) [3] | PI cell death, ORF3a induced cytotoxicity (qualitative) [4] | ASC protein levels co-immunoprecipitated with TSPO (qualitative) [5] | reduction of cell death [6] | binding result [7] |
| --- | --- | --- | --- | --- | --- | --- | --- |
| CCCCCCN(CCCCCC)C(=O)Cc1c(-c2ccc(F)cc2)[nH]c2ccccc12 [FGIN, FGIN 1-27] | confer cytoprotection | confer cytoprotection | decrease | significant decrease | – | – | – |
| CCN(Cc1ccccc1)C(=O)Cn1c(=O)n(C)c2cnc(-c3ccccc3)nc21 [XBD173] | confer cytoprotection | confer cytoprotection | decrease | significant decrease | – | – | – |
| CCNC1=Nc2ccc(Cl)cc2C(C)(c2ccccc2)O1 (stereo not shown) [etifoxine] | confer cytoprotection | confer cytoprotection | – | significant decrease | decrease in protein levels | approximately 50% | – |
| CCC(C)N(C)C(=O)c1cc2ccccc2c(-c2ccccc2Cl)n1 (stereo not shown) [PK11195] | confer cytoprotection | confer cytoprotection | decrease | significant decrease | decrease in protein levels | – | – |
| TSPO (the 18 kDa translocator protein) (other, also called peripheral benzodiazepine receptor) APPWVPAMGFTLAPSLGCFVGSRFVHGEGLRWYAGLQKPSWHPPHWVLGPVWGTLYSAMGYGSYLVWKELGGFTEKAVVPLGLYTGQLALNWAWPPIFFGARQMGWALVDLLLVSGAAAATTVAWYQVSPLAARLLYPYLAWLAFTTTLNYCVWRDNHGWRGGRRLPE | – | – | – | – | – | – | no binding |
